Source: patent US5776925A, “Methods for cancer chemosensitization” (Pharmacyclics, Inc., priority 1996, dated 1998)

Columns and labels:
EMT6 tumors [1] = test system: EMT6 tumors
EMT6 tumors [2] = assay: in vivo chemosensitization of cyclophosphamide, subcutaneous EMT6 tumors in Balb/c mice; design: species or system murine (Balb/c mice); settings: cyclophosphamide 40 mg/kg followed by GdT2BET 40 μmol/kg 5 min, or 5 min and 5 hr later; once a week for three weeks
Procedure: In vivo studies were carried out using Balb/c mice with EMT6 tumors implanted subcutaneously as described in Example 2. 4-Hydroxy cyclophosphamide was dissolved at a concentration of 5 mg/mL in 0.9% NaCl. GdT2BET was dissolved at a concentration of 2 mM in 5% mannitol. EMT6 tumors were implanted subcutaneously in the right flanks of Balb/c mice; 9 mice were in each group. Group #1 received cyclophosphamide (CY) at 40 mg/kg; group #2 received cyclophosphamide (CY) at 40 mg/kg followed by GdT2BET at 40 μmol/kg 5 min later; and group #3 received cyclophosphamide (CY) at 40 mg/kg followed by GdT2BET at 40 μmol/kg 5 min and 5 hr later. This protocol was repeated once a week for three weeks.

MES-SA/Dx5 cells = assay: chemosensitization effect in doxorubicin-selected mdr1 variant; format: cell-based, human
MES-SA cells [3] = test system: MES-SA cells
MES-SA cells [4] = format: cell-based, human
[5] = test system: MDR gene in bone marrow cells; settings: MDR1-transgenic mouse, simultaneous administration (Mickisch, 1991); cited from earlier work
[6] = in vivo; cited from earlier work

CC(=O)[O-].CC(=O)[O-].CCc1c(CC)c2cc3nc(cnc4cc(OCCOCCOCCOC)c(OCCOCCOCCOC)cc4ncc4nc(cc1[n-]2)C(CCCO)=C4C)C(C)=C3CCCO.O.[Gd+3] [GdT2BET]
cures (no evidence of disease at end of study) (EMT6 tumors [1]; ADR+2GdT2BET group (GdT2BET 5 min and 5 hr post ADR), first study): Two
cures, further study (EMT6 tumors [1]; ADR+2GdT2BET group, further study): two
adriamycin cytotoxicity (tumor) (EMT6 tumors [1]; adriamycin 7.5 mg/kg iv followed by GdT2BET 40 μmol/kg iv, once a week for three weeks): clear enhancement of adriamycin cytotoxicity
p, ADR+2GdT2BET versus ADR only (EMT6 tumors [1]; after day 9, FIG. 1, n=14): < 0.05
cytotoxicity in further study (EMT6 tumors [1]; further study: ADR+2GdT2BET and three-step texaphyrin/ADR/texaphyrin): enhanced cytotoxicity
chemosensitization with cyclophosphamide in vivo (EMT6 tumors [2]): little chemosensitization occurred
mechanism of action of chemosensitization (MES-SA/Dx5 cells; MES-SA/Dx5 compared with MES-SA): P-glycoprotein-independent
enhancement of cytotoxicity of bleomycin (MES-SA cells [3]): seen at all concentrations of bleomycin tested and at all three concentrations of texaphyrin tested
percent survival of the cells (MES-SA cells [3]; with bleomycin, 50 μM, 100 μM, and 150 μM GdT2BET, 48 hr): substantially less in the presence of texaphyrin

N.N.[Cl][Pt][Cl] [cisplatin]
effectiveness in the presence of texaphyrin (MES-SA cells [4]): effective
effectiveness in the presence of texaphyrin (MES-SA/Dx5 cells): effective

COc1cccc2c1C(=O)c1c(O)c3c(c(O)c1C2=O)C[C@@](O)(C(=O)CO)C[C@@H]3O[C@H]1C[C@H](N)[C@H](O)[C@H](C)O1 [doxorubicin]
effectiveness in the presence of texaphyrin (MES-SA cells [4]): effective
effectiveness in the presence of texaphyrin (MES-SA/Dx5 cells): effective

COc1cc([C@@H]2c3cc4c(cc3[C@@H](O[C@@H]3O[C@@H]5CO[C@@H](C)O[C@H]5[C@H](O)[C@H]3O)[C@H]3COC(=O)[C@H]23)OCO4)cc(OC)c1O [etoposide]
effectiveness in the presence of texaphyrin (MES-SA cells [4]): effective
effectiveness in the presence of texaphyrin (MES-SA/Dx5 cells): effective
IC50 difference relative to control / cytotoxicity in the presence of texaphyrin (FIG. 2) (MES-SA cells [3]): enhanced cytotoxicity

CC(=O)O[C@H]1C(=O)[C@@]2(C)[C@H]([C@H](OC(=O)c3ccccc3)[C@]3(O)C[C@H](OC(=O)[C@H](O)[C@@H](NC(=O)c4ccccc4)c4ccccc4)C(C)=C1C3(C)C)[C@]1(OC(C)=O)CO[C@@H]1C[C@@H]2O [paclitaxel]
IC50 difference relative to control / cytotoxicity in the presence of texaphyrin (FIG. 2) (MES-SA cells [3]): enhanced cytotoxicity

C=C[C@H]1C[N@@]2CC[C@H]1C[C@H]2[C@H](O)c1ccnc2ccc(OC)cc12 [quinine]
reversal of drug resistance [5]: circumvented in a dose-dependent manner

CC/C(=C(\c1ccccc1)c1ccc(OCCN(C)C)cc1)c1ccccc1 [tamoxifen]
dose-limiting toxicities as chemosensitizer [6]: attributed to the inherent toxicity of the chemosensitizer and not due to enhanced chemotherapy toxicity

CN1CCN(CCCN2c3ccccc3Sc3ccc(C(F)(F)F)cc32)CC1 [trifluoperazine]
dose-limiting toxicities as chemosensitizer [6]: attributed to the inherent toxicity of the chemosensitizer and not due to enhanced chemotherapy toxicity

COc1ccc(CCN(C)CCCC(C#N)(c2ccc(OC)c(OC)c2)C(C)C)cc1OC (centres unmarked) [verapamil]
reversal of drug resistance [5]: circumvented in a dose-dependent manner

bleomycin
effectiveness in the presence of texaphyrin (MES-SA cells [4]): effective
effectiveness in the presence of texaphyrin (MES-SA/Dx5 cells): effective
